Assay: Phase one study part 2: multiple dose (28 days) plasma PK of free and total DGLA
Type: in vivo, human
Method: Multiple dose part two of the study comprised two cohorts (Cohorts five and six) of eight subjects each, who were administered multiple doses of study drug in the fasted state for 28 days. Subjects in Cohorts five and six received DS107G at 2000 or 4000 mg, respectively, or matching placebo once daily for 28 days. Cohort six was started after Cohort five's safety data were evaluated by the SMC. No interim analysis was planned. […]
In Part two of the study (Cohorts five and six), subjects were administered study drug (500-mg DS107G capsules or matching placebo capsules) once daily in the fasted state for 28 days. Subjects in Cohort five received study drug first and, if they tolerated the 2000-mg daily dose for the first 14 days, subjects in Cohort six were started on the 4000-mg daily dose for 28 days.
PK parameter was computed after correcting the dosed DGLA concentrations with baseline DGLA concentrations.

[1] = 2000 mg once daily, Day 1, 0 to 24 hours
[2] = 2000 mg once daily, Day 28, 0 to 24 hours
[3] = 2000 mg once daily, Day 28, 0 to 168 hours
[4] = 2000 mg once daily, Day 28: 0 to 24 hours
[5] = 4000 mg once daily, Day 1, 0 to 24 hours

## CCCCC/C=C\C/C=C\C/C=C\CCCCCCC(=O)O [DS107G, Dihomo gamma linolenic acid]
2000 mg
  free DGLA mean accumulation ratio (AR), AUC: ~3.3
  free DGLA mean accumulation ratio (AR), Cmax: ~2.8
[1]
  AUC0-24, mean, free DGLA, baseline-corrected plasma: 4548.7 ng·h/mL
  AUC0-24/Dose, mean, free DGLA, baseline-corrected plasma: 2.27 h/kL
  AUC0-24/Dose, mean, total DGLA, baseline-corrected plasma: 149.09 h/kL
  AUC0-inf, mean, free DGLA, baseline-corrected plasma: 5955.6 ng·h/mL
  AUC0-inf/Dose, mean, free DGLA, baseline-corrected plasma: 2.98 h/kL
  AUC0-inf/Dose, mean, total DGLA, baseline-corrected plasma: 2080.61 h/kL
  CL/F, mean, free DGLA, baseline-corrected plasma: 0.5448 kL/h
  Cmax, mean, free DGLA, baseline-corrected plasma: 850.5 ng/mL
  Cmax/Dose, mean, free DGLA, baseline-corrected plasma: 0.425 kL⁻¹
  Cmax/Dose, mean, total DGLA, baseline-corrected plasma: 9.050 kL⁻¹
  λz, mean, free DGLA, baseline-corrected plasma: 0.2133 h⁻¹
  λz, mean, total DGLA, baseline-corrected plasma: 0.221 h⁻¹
[2]
  AUC0-24, mean, free DGLA, baseline-corrected plasma: 9248.1 ng·h/mL
  AUC0-24/Dose, mean, free DGLA, baseline-corrected plasma: 4.62 h/kL
  AUC0-24/Dose, mean, total DGLA, baseline-corrected plasma: 675.69 h/kL
  AUC0-inf, mean, free DGLA, baseline-corrected plasma: 10389.0 ng·h/mL
  AUC0-inf/Dose, mean, free DGLA, baseline-corrected plasma: 5.19 h/kL
  AUC0-inf/Dose, mean, total DGLA, baseline-corrected plasma: 2579.58 h/kL
  CL/F, mean, free DGLA, baseline-corrected plasma: 0.2002 kL/h
  Cmax, mean, free DGLA, baseline-corrected plasma: 1999.3 ng/mL
  Cmax/Dose, mean, free DGLA, baseline-corrected plasma: 1.000 kL⁻¹
  Cmax/Dose, mean, total DGLA, baseline-corrected plasma: 37.792 kL⁻¹
  λz, mean, free DGLA, baseline-corrected plasma: 0.1282 h⁻¹
  λz, mean, total DGLA, baseline-corrected plasma: 0.0199 h⁻¹
[3]
  AUC0-24, mean, free DGLA, baseline-corrected plasma: 9248.1 ng·h/mL
  AUC0-24/Dose, mean, free DGLA, baseline-corrected plasma: 4.62 h/kL
  AUC0-24/Dose, mean, total DGLA, baseline-corrected plasma: 675.69 h/kL
  AUC0-inf, mean, free DGLA, baseline-corrected plasma: 43024.8 ng·h/mL
  AUC0-inf/Dose, mean, free DGLA, baseline-corrected plasma: 21.51 h/kL
  AUC0-inf/Dose, mean, total DGLA, baseline-corrected plasma: 2513.91 h/kL
  CL/F, mean, free DGLA, baseline-corrected plasma: 0.0949 kL/h
  Cmax, mean, free DGLA, baseline-corrected plasma: 1999.3 ng/mL
  Cmax/Dose, mean, free DGLA, baseline-corrected plasma: 1.000 kL⁻¹
  Cmax/Dose, mean, total DGLA, baseline-corrected plasma: 37.792 kL⁻¹
  λz, mean, free DGLA, baseline-corrected plasma: 0.0250 h⁻¹
  λz, mean, total DGLA, baseline-corrected plasma: 0.0169 h⁻¹
[4]
  % PTF (peak trough fluctuation), mean, free DGLA, steady-state baseline-corrected plasma: 492.54%
  % PTF (peak trough fluctuation), mean, total DGLA, steady-state baseline-corrected plasma: 62.50%
  AR(AUC) accumulation ratio, mean, free DGLA, steady-state baseline-corrected plasma: 3.340
  AR(AUC) accumulation ratio, mean, total DGLA, steady-state baseline-corrected plasma: 7.991
  AR(Cmax) accumulation ratio, mean, free DGLA, steady-state baseline-corrected plasma: 2.796
  AR(Cmax) accumulation ratio, mean, total DGLA, steady-state baseline-corrected plasma: 5.156
  CLss/F, mean, free DGLA, steady-state baseline-corrected plasma: 0.2295 kL/h
  CLss/F, mean, total DGLA, steady-state baseline-corrected plasma: 0.0016 kL/h
  Cavg, mean, free DGLA, steady-state baseline-corrected plasma: 385.3 ng/mL
  Cavg, mean, total DGLA, steady-state baseline-corrected plasma: 56307.2 ng/mL
  Cmin, mean, free DGLA, steady-state baseline-corrected plasma: 100.8 ng/mL
  Cmin, mean, total DGLA, steady-state baseline-corrected plasma: 37933.3 ng/mL
  Vzss/F, mean, free DGLA, steady-state baseline-corrected plasma: 5.3096 kL
  Vzss/F, mean, total DGLA, steady-state baseline-corrected plasma: 0.0980 kL
  tmin, median, free DGLA, steady-state baseline-corrected plasma: 8.00 h
  tmin, median, total DGLA, steady-state baseline-corrected plasma: 1.50 h
4000 mg
  free DGLA mean accumulation ratio (AR), AUC: ~1.6
  free DGLA mean accumulation ratio (AR), Cmax: ~1.4
[5]
  AUC0-24, mean, free DGLA, baseline-corrected plasma: 11441.4 ng·h/mL
  AUC0-24/Dose, mean, free DGLA, baseline-corrected plasma: 2.86 h/kL
  AUC0-24/Dose, mean, total DGLA, baseline-corrected plasma: 114.05 h/kL
  AUC0-inf, mean, free DGLA, baseline-corrected plasma: 13900.3 ng·h/mL
  AUC0-inf/Dose, mean, free DGLA, baseline-corrected plasma: 3.48 h/kL
  CL/F, mean, free DGLA, baseline-corrected plasma: 0.3325 kL/h
  Cmax, mean, free DGLA, baseline-corrected plasma: 2641.5 ng/mL
  Cmax/Dose, mean, free DGLA, baseline-corrected plasma: 0.660 kL⁻¹
  Cmax/Dose, mean, total DGLA, baseline-corrected plasma: 6.967 kL⁻¹
  λz, mean, free DGLA, baseline-corrected plasma: 0.1504 h⁻¹

Source: patent US20180333382A1, “PHARMACEUTICAL COMPOSITIONS COMPRISING DGLA AND USE OF SAME” (DS Biopharma Limited, priority 2017, published 2018)
